In BindingDB's records for doi:10.7270/Q2F769WQ (University of Pittsburgh, 2007) one finds IC50 data, which are given here for 23 molecules.

The structures appear in SMILES notation. pIC50: −log10 of the molar value.

This assay deals with T1, Dual specificity protein phosphatase 1 (Homo sapiens, UniProt P28562).
T1 sequence (P28562 whole entry): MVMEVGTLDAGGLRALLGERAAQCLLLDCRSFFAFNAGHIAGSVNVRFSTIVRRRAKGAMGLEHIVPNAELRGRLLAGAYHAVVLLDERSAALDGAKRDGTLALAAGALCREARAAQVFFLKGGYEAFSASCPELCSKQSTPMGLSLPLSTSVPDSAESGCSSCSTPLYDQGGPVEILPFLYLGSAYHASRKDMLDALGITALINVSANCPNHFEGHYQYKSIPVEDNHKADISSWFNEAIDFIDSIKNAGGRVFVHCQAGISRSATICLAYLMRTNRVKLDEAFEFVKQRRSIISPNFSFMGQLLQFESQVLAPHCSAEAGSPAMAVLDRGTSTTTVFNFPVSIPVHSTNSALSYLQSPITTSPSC
Put plainly: MKP-1 phosphatase inhibitor potency, dose response, biochemical, in vitro, confirmation (AID 551). To be noted: pH 7; 22 °C.
For `Cc1ccc(C)n1-c1cccc(C(=O)O)c1`, the pIC50 is 4.92.

In turn, `O=C(Nc1ccc2nc(-c3ccco3)c(-c3ccco3)nc2c1)N1CCCCCC1` showed a pIC50 of 4.91.

`CCCCCC#CCC#CCC#CCC#CCCCC(=O)O` gave a pIC50 of 5.19.

The molecule `Cn1ncnc2c(=O)n(C)c(=O)nc1-2` gave a pIC50 of 6.74.

For the molecule `[O-]/[N+](=C\c1ccncc1)c1ccccc1`, the negative-log IC50 (pIC50) was 4.30.

In turn, `O=C(CSc1nc2n[nH]cc2c(=O)n1-c1ccccc1)N1CCCc2ccccc21` had a negative-log IC50 (pIC50) of under 4.30.

Turning to `CCn1cc(C(=O)NC2CCC(C)CC2)c(=O)c2cc(S(=O)(=O)N3CCCCC3)ccc21` (stereo not drawn), the negative-log IC50 (pIC50) was 4.31.

Turning to `CCSCCOC(=O)C1=C(C)N=C2CCCC(=O)C2C1c1coc2ccccc2c1=O` (stereo not drawn), the pIC50 was under 4.30.

Take `Oc1ncnc2[nH]ncc12`: the pIC50 was under 4.30.

`O=C1C=Cc2ccccc2C1=O` [1,2-dihydronaphthalene-1,2-dione] showed a negative-log IC50 (pIC50) of 4.74.

For the molecule `Cc1nc2cc(-c3cccc(F)c3)nn2c(C)c1CCC(=O)N1CCC2(CC1)OCCO2` [1-(1,4-dioxa-8-azaspiro[4.5]decan-8-yl)-3-[2-(3-fluorophenyl)-5,7-dimethyl-6-pyrazolo[1,5-a]pyrimidinyl]-1-propanone], the negative logarithm of the IC50 (pIC50) was under 4.30.

For `CC(C)(C)C(=O)c1sc(Nc2ccccc2)nc1N` [1-(4-amino-2-anilino-1,3-thiazol-5-yl)-2,2-dimethyl-1-propanone], the pIC50 was under 4.30.

On to `CCn1nc(-c2ccccc2)nc2c(=O)n(C)c(=O)nc1-2` [1-Ethyl-6-methyl-3-phenyl-1H-pyrimido[5,4-e][1,2,4]triazine-5,7-dione], for which the pIC50 was 6.71.

In turn, `COc1ccc(S(=O)(=O)N2CCC(NC(=O)Nc3ccc(C)cc3)CC2)cc1` [1-[1-(4-Methoxy-benzenesulfonyl)-piperidin-4-yl]-3-p-tolyl-urea] showed a negative-log IC50 (pIC50) of under 4.30.

Consider `[O-]/[N+](=C\c1ccc(OC(F)F)cc1)c1ccccc1` [1-[4-(difluoromethoxy)phenyl]-N-phenylmethanimine oxide], for which the pIC50 was under 4.30.

In the case of `CCCCn1c(SCC(=O)c2ccc(OC)cc2OC)nc2cc(S(N)(=O)=O)ccc21` [1-butyl-2-[2-(2,4-dimethoxyphenyl)-2-oxidanylidene-ethyl]sulfanyl-benzimidazole-5-sulfonamide], the negative-log IC50 (pIC50) is under 4.30.

`CCn1c(=O)cc(SCC(=O)N2CCN(Cc3ccc4c(c3)OCO4)CC2)c2ccccc21` [1-ethyl-4-[[2-keto-2-(4-piperonylpiperazino)ethyl]thio]carbostyril] had a negative-log IC50 (pIC50) of under 4.30.

With `CCn1nc(-c2cccs2)nc2c(=O)n(C)c(=O)nc1-2` [1-ethyl-6-methyl-3-thiophen-2-yl-pyrimido[5,4-e][1,2,4]triazine-5,7-dione], the pIC50 was 6.80.

On to `O=C(Nc1ccccc1)c1ccc2nc(-c3ccco3)c(-c3ccco3)nc2c1` [2,3-di-2-furyl-N-phenyl-6-quinoxalinecarboxamide], for which the pIC50 was 4.67.

The molecule `CC(C)Cn1c(N)c(C(=O)COC(=O)c2cc(-c3ccco3)nc3ccccc23)c(=O)n(C)c1=O` [2-(2-furanyl)-4-quinolinecarboxylic acid [2-[4-amino-1-methyl-3-(2-methylpropyl)-2,6-dioxo-5-pyrimidinyl]-2-oxoethyl] ester] showed a negative logarithm of the IC50 (pIC50) of 4.64.

`Cc1nn(C(C)C(=O)N2CCCCC2)c(=O)c2c1sc1ccccc12` (stereo not drawn) [2-(2-keto-1-methyl-2-piperidino-ethyl)-4-methyl-benzothiopheno[2,3-d]pyridazin-1-one] gave a pIC50 of under 4.30.

With `CCOc1ccc(-c2cc3nc(C4CCN(C(=O)OC(C)(C)C)CC4)c(C(=O)O)cn3n2)cc1` [2-(4-ethoxyphenyl)-5-[1-[(2-methylpropan-2-yl)oxy-oxomethyl]-4-piperidinyl]-6-pyrazolo[1,5-a]pyrimidinecarboxylic acid], the pIC50 was 4.82.

`COc1ccc(-c2cc3nc(C4CCN(C(=O)OC(C)(C)C)CC4)c(C(=O)O)cn3n2)cc1` [2-(4-methoxyphenyl)-5-[1-[(2-methylpropan-2-yl)oxy-oxomethyl]-4-piperidinyl]-6-pyrazolo[1,5-a]pyrimidinecarboxylic acid] gave a negative-log IC50 (pIC50) of 4.57.

A word on the pIC50: it is the negative decadic logarithm of the IC50, by convention in mol/L.
